# In the supplement of paper PMC10307832:
# How the values were obtained:
# Assay in all cases: relative viability (nuclei count vs DMSO), 5 days (fraction); higher = more cells survive
# AZD6482 + AZD7762 = compound: Cc1cc([C@@H](C)Nc2ccccc2C(=O)O)c2nc(N3CCOCC3)cc(=O)n2c1 [AZD6482] + NC(=O)Nc1cc(-c2cccc(F)c2)sc1C(=O)N[C@H]1CCCNC1 [AZD7762] (partner 0.2 µM)
# Outline: (§1)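 Lung cancer cell lines were seeded in 1536-well plates and dosed by pin tool the next day, with either a single drug or a fixed anchor-drug dose combined with five library-drug doses (not always all listed) spaced in √10 steps. Five days later, one step fixed the cells and stained their nuclei (final 0.05% Triton X-100, 1% formaldehyde, 1 ug/ml Hoechst), and nuclei were counted on 4× images. Relative viability is the nuclei count in treated wells divided by the count in vehicle wells, and each value is the median of duplicate plates.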
# [1] = compound: COc1cc2nc(N3CCCN(C)CC3)nc(NC3CCN(Cc4ccccc4)CC3)c2cc1OC + C[C@@H](Oc1cc(-c2cnn(C3CCNCC3)c2)cnc1N)c1c(Cl)ccc(F)c1Cl [Crizotinib] (partner 1 µM)
# Outline: as §1
# [2] = compound: COc1cc2nc(N3CCCN(C)CC3)nc(NC3CCN(Cc4ccccc4)CC3)c2cc1OC + CC(C)C[C@H](NC(=O)[C@H](Cc1ccccc1)NC(=O)c1cnccn1)B(O)O [Bortezomib] (partner 0.002 µM)
# Outline: as §1
# AZD6482 + Bortezomib = compound: Cc1cc([C@@H](C)Nc2ccccc2C(=O)O)c2nc(N3CCOCC3)cc(=O)n2c1 [AZD6482] + CC(C)C[C@H](NC(=O)[C@H](Cc1ccccc1)NC(=O)c1cnccn1)B(O)O [Bortezomib] (partner 0.002 µM)
# Outline: as §1
Cell Line,relative viability (AZD6482 + AZD7762; first compound 0.08 µM),relative viability (AZD6482 + AZD7762; first compound 0.253 µM),relative viability (AZD6482 + AZD7762; first compound 0.8 µM),relative viability (AZD6482 + AZD7762; first compound 8 µM),relative viability ([1]; first compound 0.2 µM),relative viability ([1]; first compound 0.6325 µM),relative viability ([1]; first compound 2 µM),relative viability ([1]; first compound 6.325 µM),relative viability ([2]; first compound 0.2 µM),relative viability ([2]; first compound 0.6325 µM),relative viability ([2]; first compound 2 µM),relative viability ([2]; first compound 6.325 µM),relative viability (AZD6482 + Bortezomib; first compound 0.08 µM),relative viability (AZD6482 + Bortezomib; first compound 0.253 µM),relative viability (AZD6482 + Bortezomib; first compound 0.8 µM),relative viability (AZD6482 + Bortezomib; first compound 2.53 µM),relative viability (AZD6482 + Bortezomib; first compound 8 µM),relative viability (AZD6482 + AZD7762; first compound 2.53 µM)
NCI-H1648,0.708,0.674,0.872,0.6,–,–,–,–,–,–,–,–,–,–,–,–,–,–
SK-MES-1,–,–,–,–,0.97,0.962,1.04,1.06,–,–,–,–,–,–,–,–,–,–
HCC-366,0.23,0.243,0.253,0.25,0.566,0.515,0.644,0.567,1.02,1,1.03,0.927,0.944,0.969,1.06,0.84,0.742,0.179
201T,0.739,0.669,0.615,0.565,0.995,1.1,1.04,0.995,1.13,1.14,1.17,1.07,1.08,1.08,1.14,0.891,1.11,0.611
HCC-827,0.351,0.184,0.162,0.137,0.886,0.944,0.917,0.918,0.99,1.13,0.786,1.06,0.991,1.1,1.09,0.872,0.836,0.131
NCI-H647,0.365,0.445,0.495,0.235,1.01,0.973,0.968,0.466,0.967,1,1.35,0.449,0.784,–,0.777,0.582,0.771,0.191
NCI-H2023,–,–,–,–,0.616,0.592,0.686,0.156,1.02,0.967,1.05,0.329,0.984,0.742,0.874,0.623,0.679,–
NCI-H520,–,–,–,–,0.714,0.664,0.852,0.214,0.792,0.623,0.777,0.217,0.489,0.223,0.481,–,0.306,–
RERF-LC-KJ,0.867,0.893,–,0.838,0.721,0.82,0.872,0.853,1.12,1.08,1.14,1.02,0.825,0.907,0.895,0.921,0.865,0.812
A-427,0.645,0.804,0.684,0.627,0.861,0.781,1.04,0.838,0.962,0.869,1.09,0.957,0.992,1.01,0.978,0.741,0.961,0.451
NCI-H441,1.02,1.18,1.36,1.19,0.656,–,0.59,0.701,0.454,–,0.519,0.36,0.617,0.481,0.595,0.357,0.449,–
NCI-H1703,–,–,0.333,0.149,1,0.45,0.868,0.526,0.37,0.379,0.316,0.203,0.377,0.301,0.331,0.191,0.238,0.131
NCI-H1792,0.516,0.577,0.427,0.322,0.994,1.04,0.975,1.08,0.952,1.01,1.08,1.22,0.856,0.859,0.991,0.677,0.483,0.262
Calu-6,–,–,–,–,0.75,0.676,0.814,0.67,0.976,0.942,1.03,0.948,0.889,0.973,0.978,0.823,0.889,–
SK-LU-1,–,–,–,–,0.858,0.943,0.92,0.536,1.14,1.19,1.5,1.07,0.776,0.642,1.16,0.589,0.46,–
PC-3 [JPC-3],0.872,0.715,0.741,0.413,0.972,0.974,1.11,0.869,0.793,0.787,0.962,0.675,0.658,0.844,0.843,0.761,0.713,0.367
EMC-BAC-2,1.03,0.958,1.02,0.679,0.729,0.747,0.843,0.824,1.09,1.12,1.11,1.09,1.02,1.07,1.12,0.838,0.948,0.818
LK-2,0.386,0.362,0.434,0.271,0.233,0.237,0.235,0.284,–,–,–,–,–,–,–,–,–,0.239
NCI-H2126,1.02,0.849,1.02,0.762,0.978,0.969,1.08,0.996,1.15,1.09,1.13,1.08,1.12,1.09,1.1,0.851,0.786,0.795
NCI-H3122,0.956,0.987,1.05,0.777,0.256,0.305,0.293,0.267,0.97,0.966,1.07,0.989,0.87,0.989,1.1,0.803,1.09,0.696
NCI-H1975,0.621,0.631,0.676,0.363,1.06,0.933,1.07,0.95,0.371,0.376,0.346,0.413,0.345,0.375,0.384,0.323,0.301,0.477
